Here are results for five compounds from patent publication US20240385182A1, “MASKED FLUOROGENIC LIPID COMPOUNDS, LIPID PARTICLES COMPRISING THE SAME, AND METHODS OF USE THEREOF” (Rutgers, The State University of New Jersey, priority 2023, published 2024).

The nature of data set [1]: Photophysical characterization of probes and uncaged forms (relative fluorescence quantum yield, extinction coefficient, brightness). Type of data set: physicochemical. The settings on record: for Brightness: in M⁻¹·cm⁻¹ (unit assumed). The procedure: The pKa of TEG-TC was determined to be 7.1±0.1 using UV-Vis spectrophotometric measurements. Under the confocal imaging conditions (pH 7.5-8.5 with cell-free assays, pH 7.4 with cells), a substantial population of the 7-hydroxycoumarin should exist in its aryloxide form. The change in coumarin fluorogenicity was assessed upon uncaging the probes from the oxobutylphenyl carbonate by measuring the relative fluorescence quantum yield (ΦFrel) values (Table 2). Coumarin 343 was used as a standard, which has an absolute fluorescence quantum yield ([…]) of 0.63 in ethanol. The ΦFrel values of TEG-TC-ONOO^− (entry 1) and DPPC-TC-ONOO^− (entry 3) were measured as 0.08 and 0.09, respectively. […] The ΦFrel values for TEG-TC (entry 2) and DPPC-TC (entry 4), which were synthesized independently, were measured as 0.66 and 0.64, respectively.
Next, the impact of caging and uncaging of the coumarin or fluorescein moieties on their fluorogenicity was assessed by measuring the relative fluorescence quantum yield (ΦFrel) values (Table 3). Coumarin 343 was used as the standard for measuring ΦFrel of the triazole-coumarin compounds (TEG-TC-H2S, TEG-TC, DPPC-TC-H2S, and DPPC-TC) whereas fluorescein for the triazole-fluorescein compounds (TEG-TF-H2O2, TEG-TF, and DPPC-TF-H2O2, and DPPC-TF). Relative to coumarin 343, whose absolute fluorescence quantum yield (ΦF) is 0.63 in ethanol, ΦFrels of the H2S probes TEG-TC-H2S (entry 1) and DPPC-TC-H2S (entry 3) were determined to be 0.07 and 0.03, respectively.
The pKa of TEG-TC was previously found to be to be 7.1±0.1 using UV-Vis spectrophotometric measurements. Under the fluorescence activation assay conditions that are employed here (Tris 50 mM, pH 7.5), a substantial population of the coumarin moiety is expected to be in its aryloxide anion form. Relative to fluorescein, whose ΦF is 0.79 in ethanol, ΦFrel values of the H2O2 probes TEG-TF-H2O2 (entry 5) and DPPC-TF-H2O2 (entry 7) were determined to be 0.04 and 0.02, respectively.

A further data set relates to HeLa and RAW 264.7 cells. The data set is described as follows: MTT cell viability assay. Type of data set: cell-based. As to conditions: 8-250 μM, 24-hour period. The protocol: With a feasible liposome preparation and treatment protocol established for live cell imaging, attention was turned to assessing the cytocompatibility of the LNPs, with or without DPPC-TC-ONOO^−, DPPC-TC, and the oxa-spiro[4,5] decenone 6a. A standard 3-(4,5-dimethylthiazol-2-yl)-2,5-diphenyl tetrazolium bromide (MTT) cell viability assay in HeLa and RAW 264.7 cells treated with these molecules (8-250 μM) over a 24-hour period. The dose-response curves provided high IC50 values for each compound: DPPC-TC-ONOO− (≥100 μM), DPPC-TC (≥50 μM), and 6 (≥70 μM).
(In general: Tetrazolium assays rely on reduction of a dye to a coloured formazan, in cell work by metabolically active cells.)

A further data set has as its system HeLa cells. Put plainly: Confocal imaging and colocalization in live HeLa cells. In kind it is cell-based. The settings on record: LNPs, no stimulation. The procedure:
FIGS. 9A-9E: confocal imaging of lipid environments targeted by ONOO^− in live HeLa cells. Cells were seeded into glass microscope dishes, incubated with LNPs (50 μM) and stained with organelle trackers and/or actin dye prior to imaging. LNPs obtained from a 47.5:47.5:5.0 molar ratio of DOTMA, DOPE, and DPPC-TC-ONOO^−. FIG. 9A: cells treated with LNPs, stimulated with IFN-γ/LPS/PMA. Time coarse images acquired upon PMA treatment. FIG. 9B: cells treated with LNPs and 1400 W. FIG. 9C: cells treated with LNPs, then with 1400 W and IFN-γ/LPS/PMA. FIGS. 9D-9E: quantitative colocalization study of cells treated with LNPs and stimulated with IFN-γ/LPS/PMA. Pearson's correlation coefficient (PCC) was calculated for quantitative assessment. Organelle trackers: ER-Tracker™, MitoTracker™, CellLight™ Golgi-RFP, LysoTracker™. Cell cytoskeleton was assessed with CellMask™ Deep Red Actin Tracking Stain. DPPC-TC channel: 405/475 nm. Scale bars=20 μm (FIGS. 9A-9D) or 5 μm (FIG. 9E). With the utility of DPPC-TC-ONOO^− proven in synthetic protocell membranes, incorporation into live HeLa and RAW 264.7 cells was sought, which are relevant to redox-induced stress and have well-recognized pathways for RNS and ROS production. Lipid nanoparticles (LNPs) (˜100 nm in diameter) was used to deliver DPPC-TC-ONOO− into cells. This method circumvented the limited solubility of DPPC-TC-ONOO− due to the relatively hydrophobic butanone-coumarin motif. LNPs were obtained via sonication from 1,2-di-O-octadecenyl-3-trimethylammonium propane (DOTMA), 1,2-dioleoyl-sn-glycero-3-phosphoethanolamine (DOPE), and DPPC-TC-ONOO− (47.5:47.5:5.0 molar ratio), which were hydrated with a 300 mM sucrose solution. DOTMA and DOPE were chosen as the carrier lipids due to their cationic/zwitterionic natures, which has been postulated to enhance uptake through the cell membrane. The impact of different LNP compositions and incubation times on the cellular incorporation of DPPC-TC-ONOO^− was assessed. […] Specifically, LNPs containing greater than 10 mol % DPPC-TC-ONOO− were considerably more heterogenous in size (up to […] observed, in contrast to ˜100 nm) and nonuniform in vesicle lamellarity. Those with less than 4 mol % DPPC-TC-ONOO− led to insufficient fluorescence signal. To balance these counteracting factors, 5 mol % DPPC-TC-ONOO− was used, with 47.5 mol % DOTMA and DOPE, each. In these initial assays, cells were incubated with LNPs for up to 15 hours to complete the uptake and intracellular localization of DPPC-TC-ONOO−. Shorter incubation times (3-to-5 hours) led to its uptake but not subcellular localization. […] However, high serum concentration in DMEM caused interference between LNPs and serum-protein, resulting in aggregate formation as observed by microscopy. To overcome this obstacle, LNPs (50 μM) were used in a mixture of 2/3 volumetric ratio of sucrose solution and Opti-MEM™, a reduced serum medium known to increase the efficiency of lipofection. […] For a physiologically relevant stress model, the standard stimulation condition involving IFN-γ/LPS/PMA was employed. Treatment of cells with IFN-γ/LPS leads to the endogenous production of nitric oxide and PMA provokes increased levels of superoxide. These two reactive species combine to form peroxynitrite, as described elsewhere herein. […] The intracellular redox selectivity of DPPC-TC-ONOO^− was also assessed using N-(3-(aminomethyl)benzyl)-acetamidine, known as 1400 W, which inhibits the production of NO· by irreversibly binding to iNOS. […] To determine whether DPPC-TC-ONOO^− localizes and functions at a specific subcellular compartment in HeLa, a comprehensive colocalization study was performed with dyes specific for lipid-rich and membrane-enclosed organelles, including the ER, mitochondrion, Golgi apparatus, and lysosome (FIGS. 9D-9E). In addition, actin stain was used to gain a visual insight into the cytoskeletal structure of the whole cell. […]

Data set [2] can be described thus: Fluorescence activation and LoD of TEG-TC-H2S with H2S in Tris buffer. The protocol: FIGS. 13A-13D: specificity (FIGS. 13A-13B) and limit of detection (LoD) (FIGS. 13C-13D) of TEG-TC-H2S and TEG-TF-H2O2. LoD measurements for the probes TEG-TC-H2S (390/475 nm) and TEG-TF-H2O2 (485/525 nm) were performed in Tris buffer (50 mM, pH 7.5). Error bars represent the standard deviation; n=3. Single-tailed Student's t test: *, P<0.05; **, P<0.01; ***, P<0.001; ****, P<0.0001.
(§1) The redox-specificities of the non-amphiphilic probes, TEG-TC-H2S or TEG-TF-H2O2, were assessed by subjecting them to various RSS or ROS (FIGS. 13A-13B). Change in fluorescence intensity following excitation of each sample containing the respective probe was measured over 120 minutes of incubation and presented based on the signal-to-background ratio F/F0, where F and F0 are defined as the fluorescence with and without the redox species. The F/F0 of the untreated samples were set to 1 for comparisons. […] Samples containing TEG-TF-H2O2 and treated with 100 μM H2O2 presented a steady fluorescence enhancement within 2 hours, resulting in 4.4-fold higher fluorescence than those of the untreated samples (FIG. 13B).
(§2) The specificity of TEG-TC-H2S toward H2S was evaluated by comparing its reactivity against different RSS, cysteine (Cys), glutathione (GSH), sulfite (SO3^2−), and thiosulfate (S2O3^2−). At 1 mM initial concentration and a total incubation time of 2 hours, these sulfur species induced an increase in coumarin fluorescence by less than 25% compared to the untreated sample (FIG. 13A). […] The specificity of TEG-TF-H2O2 toward H2O2 was also assessed, by incubating the samples containing TEG-TF-H2O2 with 100 μM either hydroxyl radical (·OH), nitric oxide (NO), or superoxide radical (O2·^−) for 2 hours. Among these three reactive oxygen species, ·OH induced the highest fluorescence increase (2.2-fold), which was lower than that for H2O2 (4.4-fold). The relatively low yet observable reactivity of ·OH may have been due, in large part, to the residual unreacted H2O2 used for generating ·OH. […]

The nature of data set [3]: Specificity of TEG-TC-H2S against other RSS. The protocol:
as §1
as §2, with “hours.” for “hours. Among these three reactive oxygen species, ·OH induced the highest fluorescence increase (2.2-fold), which was lower than that for H2O2 (4.4-fold). The relatively low yet observable reactivity of ·OH may have been due, in large part, to the residual unreacted H2O2 used for generating ·OH.”

The mark [4] stands for this setting: Table 3, brightness compared to that of DPPC-TC-H2S.
Setting [5] is: Table 3, brightness compared to that of DPPC-TF-H2O2.

One may read the IC50 as the concentration that inhibits the measured activity by half. Consider `CCCCCCCCCCCCCCCC(=O)OCC(COP(=O)([O-])OCC[N+](C)(C)Cc1cn(-c2cc3ccc(O)cc3oc2=O)nn1)OC(=O)CCCCCCCCCCCCCCC` (racemic) [DPPC-TC], for which, in data set [1], the Emmax was 472.0 nm; the Exmax is 398.0 nm; the “Ext. Coeff.” value was 13749 M⁻¹ cm⁻¹; the “enhanced brightness, uncaging product vs caged probe” value was 120 fold. The Brightness in data set [1] is reported as 8799. For the same compound, the “Relative Brightness” value in data set [1] (Table 2, DPPC-TC-ONOO^− = 1.0) is given as 35.1. In addition, in data set [1] (setting [4]), the “Relative Brightness” value was 122.2. Also, the “Quantum Yield (relative fluorescence quantum yield ΦFrel)” value in data set [1] (standard coumarin 343) came to 0.64. The compound further registered an IC50 in the data set with HeLa and RAW 264.7 cells not below 50 µM. For the same compound, the “fluorescence at 405/475 nm” value in the data set with HeLa cells is listed as “strong coumarin fluorescence”.

On to `CCCCCCCCCCCCCCCC(=O)OCC(COP(=O)([O-])OCC[N+](C)(C)Cc1cn(-c2ccc3c(c2)C(=O)OC32c3ccc(O)cc3Oc3cc(O)ccc32)nn1)OC(=O)CCCCCCCCCCCCCCC` (racemic) [DPPC-TF], for which, in data set [1], the Emmax stood at 523.6 nm, the Exmax turned out to be 498.1 nm, the “Ext. Coeff.” value came to 28990 M⁻¹ cm⁻¹ and the Brightness is reported as 18264. The “Relative Brightness” value in data set [1] (setting [5]) was found to be 85.3. In addition, the “Quantum Yield (relative fluorescence quantum yield ΦFrel)” value in data set [1] (standard fluorescein) is listed as 0.63.

On to `[N-]=[N+]=Nc1ccc(COc2ccc3cc(-n4cc(COCCOCCOCCO)nn4)c(=O)oc3c2)cc1` [TEG-TC-H2S], for which, in data set [1], the Emmax was found to be 475.5 nm, the Exmax is on record as 392.3 nm, the “Ext. Coeff.” value worked out at 5347 M⁻¹ cm⁻¹ and the Brightness came to 374. Moreover, the “Relative Brightness” value in data set [1] (setting [4]) amounted to 5.2. In addition, the “Quantum Yield (relative fluorescence quantum yield ΦFrel)” value in data set [1] (standard coumarin 343) is reported as 0.07. For the same compound, the “fluorescence compared to the sample untreated” value in data set [2] (1 mM H2S, 2 hours of incubation, Tris pH 7.5) is 2.2 fold. Moreover, in data set [2] (H2S 1 mM, 2 hours), the “increase in fluorescence intensity” value is given as 120%. Moreover, in data set [2] (minimum H2S concentration at which F is statistically higher than F0, 390/475 nm, Tris 50 mM pH 7.5), the LoD was 100 µM. Besides, the “fluorescence activation in the presence of H2S compared to the other RSS” value in data set [3] was not below 5 fold. The “increase in coumarin fluorescence compared to the untreated sample” value in data set [3] (Cys, GSH, SO3^2−, S2O3^2− at 1 mM, 2 hours) is reported as “less than 25%”.

Turning to `O=C1OC2(c3ccc(O)cc3Oc3cc(O)ccc32)c2ccc(-n3cc(COCCOCCOCCO)nn3)cc21` [TEG-TF], in data set [1], the Emmax came to 522.6 nm, the Exmax was 494.3 nm, the “Ext. Coeff.” value was 35982 M⁻¹ cm⁻¹ and the Brightness came to 26267. Further, the “Relative Brightness” value in data set [1] (setting [5]) was determined as 122.7. Besides, the “Quantum Yield (relative fluorescence quantum yield ΦFrel)” value in data set [1] (standard fluorescein) came to 0.73.

Consider oxa-spiro[4,5] decenone [Compound 6], for which, in the data set on HeLa and RAW 264.7 cells, the IC50 is not below 70 µM.
